According to US11198713B2, “Agents modulating beta-catenin functions and methods thereof” (FOG PHARMACEUTICALS, INC., priority 2017, dated 2021):

molecular target: T1, full-length beta-catenin (Axin site) (Homo sapiens, UniProt P35222); assay: Competition fluorescence polarization assay (Axin site probe); assay type: binding; conditions: competition fluorescence polarization, Table 2; read-out: in vitro FP EC50
T1 construct: 15 nM full-length beta-catenin, 20 nM FITC labeled peptide in buffer
T1 sequence (P35222 1-781): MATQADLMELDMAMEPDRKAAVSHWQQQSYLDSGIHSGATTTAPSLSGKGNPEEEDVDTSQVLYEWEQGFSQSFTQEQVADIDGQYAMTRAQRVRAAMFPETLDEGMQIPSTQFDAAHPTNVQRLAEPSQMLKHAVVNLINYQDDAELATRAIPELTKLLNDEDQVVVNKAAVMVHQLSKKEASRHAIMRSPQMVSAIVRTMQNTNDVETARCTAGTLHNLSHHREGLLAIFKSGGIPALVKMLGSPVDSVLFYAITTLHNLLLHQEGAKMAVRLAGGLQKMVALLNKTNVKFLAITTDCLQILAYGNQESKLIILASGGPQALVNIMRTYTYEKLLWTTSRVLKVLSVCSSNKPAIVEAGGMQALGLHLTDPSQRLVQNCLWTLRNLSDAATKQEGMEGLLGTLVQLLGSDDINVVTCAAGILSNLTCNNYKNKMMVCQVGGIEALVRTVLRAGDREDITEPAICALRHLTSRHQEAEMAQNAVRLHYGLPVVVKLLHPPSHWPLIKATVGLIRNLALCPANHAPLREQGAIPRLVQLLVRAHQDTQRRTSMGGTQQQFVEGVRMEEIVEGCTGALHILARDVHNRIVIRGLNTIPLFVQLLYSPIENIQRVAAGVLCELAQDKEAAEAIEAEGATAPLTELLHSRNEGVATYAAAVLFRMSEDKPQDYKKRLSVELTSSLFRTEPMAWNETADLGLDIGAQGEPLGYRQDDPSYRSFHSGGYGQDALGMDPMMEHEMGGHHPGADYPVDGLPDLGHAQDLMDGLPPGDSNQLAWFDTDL
Outline: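 Competition FP: 15 nM full-length β-catenin pre-incubated 5 min with 20 nM FITC-labelled stapled Axin-site peptide, then titrated peptide added (3-fold series from 5 μM) for 15 min in the dark. Buffer 50 mM Tris pH 8.0, 250 mM NaCl, 2% glycerol, 0.5 mM EDTA; duplicate reads.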

EC50, > 5 µM:
CC[C@H](C)[C@@H]1NC(=O)[C@H](Cc2ccccn2)NC(=O)[C@H](C)NC(=O)[C@H](CC(=O)O)NC(=O)[C@H](CC(C)C)NC(=O)[C@H]([C@@H](C)CC)NC(=O)[C@](C)(NC(=O)[C@H](C)NC(C)=O)CCCCCCC=CCOC(=O)N2CC[C@@](C(=O)N[C@@H](CO)C(=O)N[C@H](C(=O)N[C@@H](Cc3c[nH]c4ccccc34)C(N)=O)C(C)C)(C2)NC1=O (single isomer, unassigned) [FP0560c Isomer 1, Ac-A-R8-I-L-D-A-2pyr-I-MB-S-V-W-NH2]
CC[C@H](C)[C@@H]1NC(=O)[C@H](Cc2ccccn2)NC(=O)[C@H](C)NC(=O)[C@H](CC(=O)O)NC(=O)[C@H](CC(C)C)NC(=O)[C@H]([C@@H](C)CC)NC(=O)[C@](C)(NC(=O)[C@H](C)NC(C)=O)CCCCCCC=CCOC(=O)N2CC[C@@](C(=O)N[C@@H](CO)C(=O)N[C@H](C(=O)N[C@@H](Cc3c[nH]c4ccccc34)C(N)=O)C(C)C)(C2)NC1=O (single isomer, unassigned) [FP0560c Isomer 2, Ac-A-R8-I-L-D-A-2pyr-I-MB-S-V-W-NH2]
CC[C@H](C)[C@@H]1NC(=O)[C@H](Cc2ccccn2)NC(=O)[C@H](C)NC(=O)[C@H](CC(=O)O)NC(=O)[C@H](CC(C)C)NC(=O)[C@H]([C@@H](C)CC)NC(=O)[C@](C)(NC(=O)[C@H](C)NC(C)=O)CCCCCCC=CCOC(=O)N2CC[C@@](C(=O)N[C@H](C(=O)N[C@H](C(=O)N[C@@H](Cc3c[nH]c4ccccc34)C(N)=O)C(C)C)[C@@H](C)O)(C2)NC1=O (single isomer, unassigned) [FP0561c Isomer 1, Ac-A-R8-I-L-D-A-2pyr-I-MB-T-V-W-NH2]
CC[C@H](C)[C@@H]1NC(=O)[C@H](Cc2ccccn2)NC(=O)[C@H](C)NC(=O)[C@H](CC(=O)O)NC(=O)[C@H](CC(C)C)NC(=O)[C@H]([C@@H](C)CC)NC(=O)[C@](C)(NC(=O)[C@H](C)NC(C)=O)CCCCCCC=CCOC(=O)N2CC[C@@](C(=O)N[C@H](C(=O)N[C@H](C(=O)N[C@@H](Cc3c[nH]c4ccccc34)C(N)=O)C(C)C)[C@@H](C)O)(C2)NC1=O (single isomer, unassigned) [FP0561c Isomer 2, Ac-A-R8-I-L-D-A-2pyr-I-MB-T-V-W-NH2]
CC[C@H](C)[C@@H]1NC(=O)[C@H](Cc2ccccn2)NC(=O)[C@H](C)NC(=O)[C@H](CC(=O)O)NC(=O)[C@H](CC(C)C)NC(=O)[C@H]([C@@H](C)CC)NC(=O)[C@](C)(NC(=O)[C@H](C)NC(C)=O)CCCCCCC=CCOC(=O)N2CC[C@@](C(=O)N[C@H](C(=O)N[C@H](C(=O)N[C@@H](Cc3c[nH]c4ccccc34)C(N)=O)C(C)C)C(C)C)(C2)NC1=O (single isomer, unassigned) [FP0562c Isomer 1, Ac-A-R8-I-L-D-A-2pyr-I-MB-V-V-W-NH2]
CC[C@H](C)[C@@H]1NC(=O)[C@H](Cc2ccccn2)NC(=O)[C@H](C)NC(=O)[C@H](CC(=O)O)NC(=O)[C@H](CC(C)C)NC(=O)[C@H]([C@@H](C)CC)NC(=O)[C@](C)(NC(=O)[C@H](C)NC(C)=O)CCCCCCC=CCOC(=O)N2CC[C@@](C(=O)N[C@H](C(=O)N[C@H](C(=O)N[C@@H](Cc3c[nH]c4ccccc34)C(N)=O)C(C)C)C(C)C)(C2)NC1=O (single isomer, unassigned) [FP0562c Isomer 2, Ac-A-R8-I-L-D-A-2pyr-I-MB-V-V-W-NH2]
CC[C@H](C)[C@@H]1NC(=O)[C@H](Cc2ccccn2)NC(=O)[C@H](C)NC(=O)[C@H](CC(=O)O)NC(=O)[C@H](CC(C)C)NC(=O)[C@H]([C@@H](C)CC)NC(=O)[C@](C)(NC(=O)[C@H](C)NC(C)=O)CCCCCCC=CCOC(=O)N2CC[C@@](C(=O)N[C@@H](Cc3c[nH]c4ccccc34)C(=O)N[C@H](C(=O)N[C@@H](Cc3c[nH]c4ccccc34)C(N)=O)C(C)C)(C2)NC1=O (single isomer, unassigned) [FP0563c Isomer 1, Ac-A-R8-I-L-D-A-2pyr-I-MB-W-V-W-NH2]
CC[C@H](C)[C@@H]1NC(=O)[C@H](Cc2ccccn2)NC(=O)[C@H](C)NC(=O)[C@H](CC(=O)O)NC(=O)[C@H](CC(C)C)NC(=O)[C@H]([C@@H](C)CC)NC(=O)[C@](C)(NC(=O)[C@H](C)NC(C)=O)CCCCCCC=CCOC(=O)N2CC[C@@](C(=O)N[C@@H](Cc3c[nH]c4ccccc34)C(=O)N[C@H](C(=O)N[C@@H](Cc3c[nH]c4ccccc34)C(N)=O)C(C)C)(C2)NC1=O (single isomer, unassigned) [FP0563c Isomer 2, Ac-A-R8-I-L-D-A-2pyr-I-MB-W-V-W-NH2]
CC[C@H](C)[C@@H]1NC(=O)[C@H](Cc2ccccn2)NC(=O)[C@H](C)NC(=O)[C@H](CC(=O)O)NC(=O)[C@H](CC(C)C)NC(=O)[C@H]([C@@H](C)CC)NC(=O)[C@](C)(NC(=O)[C@H](C)NC(C)=O)CCCCCCC=CCOC(=O)N2CC[C@@](C(=O)N[C@@H](Cc3ccc(O)cc3)C(=O)N[C@H](C(=O)N[C@@H](Cc3c[nH]c4ccccc34)C(N)=O)C(C)C)(C2)NC1=O (single isomer, unassigned) [FP0564c Isomer 1, Ac-A-R8-I-L-D-A-2pyr-I-MB-Y-V-W-NH2]
CC[C@H](C)[C@@H]1NC(=O)[C@H](Cc2ccccn2)NC(=O)[C@H](C)NC(=O)[C@H](CC(=O)O)NC(=O)[C@H](CC(C)C)NC(=O)[C@H]([C@@H](C)CC)NC(=O)[C@](C)(NC(=O)[C@H](C)NC(C)=O)CCCCCCC=CCOC(=O)N2CC[C@@](C(=O)N[C@@H](Cc3ccc(O)cc3)C(=O)N[C@H](C(=O)N[C@@H](Cc3c[nH]c4ccccc34)C(N)=O)C(C)C)(C2)NC1=O (single isomer, unassigned) [FP0564c Isomer 2, Ac-A-R8-I-L-D-A-2pyr-I-MB-Y-V-W-NH2]
CC[C@H](C)[C@@H]1NC(=O)[C@H](Cc2ccccn2)NC(=O)[C@H](C)NC(=O)[C@H](CC(=O)O)NC(=O)[C@H](CC(C)C)NC(=O)[C@H]([C@@H](C)CC)NC(=O)[C@](C)(NC(=O)[C@H](C)NC(C)=O)CCCCCCC=CCOC(=O)N2CC[C@@](C(=O)N[C@@H](CC3CCC3)C(=O)N[C@H](C(=O)N[C@@H](Cc3c[nH]c4ccccc34)C(N)=O)C(C)C)(C2)NC1=O (single isomer, unassigned) [FP0565c Isomer 1, Ac-A-R8-I-L-D-A-2pyr-I-MB-Cba-V-W-NH2]
CC[C@H](C)[C@@H]1NC(=O)[C@H](Cc2ccccn2)NC(=O)[C@H](C)NC(=O)[C@H](CC(=O)O)NC(=O)[C@H](CC(C)C)NC(=O)[C@H]([C@@H](C)CC)NC(=O)[C@](C)(NC(=O)[C@H](C)NC(C)=O)CCCCCCC=CCOC(=O)N2CC[C@@](C(=O)N[C@@H](CC3CCC3)C(=O)N[C@H](C(=O)N[C@@H](Cc3c[nH]c4ccccc34)C(N)=O)C(C)C)(C2)NC1=O (single isomer, unassigned) [FP0565c Isomer 2, Ac-A-R8-I-L-D-A-2pyr-I-MB-Cba-V-W-NH2]
CC[C@H](C)[C@@H]1NC(=O)[C@H](Cc2ccccn2)NC(=O)[C@H](C)NC(=O)[C@H](CC(=O)O)NC(=O)[C@H](CC(C)C)NC(=O)[C@H]([C@@H](C)CC)NC(=O)[C@](C)(NC(=O)[C@H](C)NC(C)=O)CCCCCCC=CCOC(=O)N2CC[C@@](C(=O)N[C@@H](CC3CCCCC3)C(=O)N[C@H](C(=O)N[C@@H](Cc3c[nH]c4ccccc34)C(N)=O)C(C)C)(C2)NC1=O (single isomer, unassigned) [FP0566c Isomer 1, Ac-A-R8-I-L-D-A-2pyr-I-MB-Cha-V-W-NH2]
